Molecules are shown by their SMILES. Values joined by “and” are separate entries in the source; they are usually repeats but may differ in a detail not shown here. Identical values can stand only once.

Data on two compounds can be found in patent publication US3974135A, “Synthetic decapeptide having the activity of the luteinizing hormone releasing hormone and method for producing the same” (priority 1972, dated 1976).

The assay has as its system LH. The experiment in a line: LRH assay in vivo in rats: serum LH by radioimmunoassay before and after injection of the peptide. The following applies: for mμg LH/ml serum before: before injection; for increase of the LH level: in vivo assay in rats. The procedure: The LRH assay was performed by the procedure of Ramirez and McCann (Endocrinology 73, 193 (1963) ). Serum assays for LH were performed in duplicate by the double antibody radioimmuno assay of Niswender et al. (Proc. Soc. Exp. Biol. Med. 128, 807 (1968)) using antiovine LH serum and ovine LH-^131 I. The activity was determined by comparison of LH levels before and after injection of the peptide.

On to `CC(C)C[C@H](NC(=O)CNC(=O)[C@H](Cc1ccc(O)cc1)NC(=O)[C@H](CO)NC(=O)[C@H](Cc1c[nH]c2ccccc12)NC(=O)[C@H](Cc1c[nH]cn1)NC(=O)[C@@H]1CCC(=O)N1)C(=O)N[C@@H](CCCNC(=N)N)C(=O)N1CCC[C@H]1C(=O)NCC(=O)O` [II, pGlu-His-Trp-Ser-Tyr-Gly-Leu-Arg-Pro-Gly-OH], for which the “mμg LH/ml serum before” value was 4.4 mμg LH/ml serum and 5.8 mμg LH/ml serum (dose level 25 μg); < 4.0 mμg LH/ml serum and 4.0 mμg LH/ml serum (dose level 200 μg). In addition, the “mμg LH/ml serum after” value (dose level 200 μg, after injection) is on record as over 285.0 mμg LH/ml serum.
`CC(C)C[C@H](NC(=O)CNC(=O)[C@H](Cc1ccc(O)cc1)NC(=O)[C@H](CO)NC(=O)[C@H](Cc1c[nH]c2ccccc12)NC(=O)[C@H](Cc1c[nH]cn1)NC(=O)[C@@H]1CCC(=O)N1)C(=O)N[C@@H](CCCNC(=N)N)C(=O)N1CCC[C@H]1C(=O)NCC(N)=O` [I, pGlu-His-Trp-Ser-Tyr-Gly-Leu-Arg-Pro-Gly-NH2]: the “doses at which it releases LRH” value (active dose) was in the range of 1 to 25 ng. The “increase of the LH level” value is recorded as 30 times (dose of 25 ng) and “maximum increase” (dose of 50 ng). In addition, the “potency compared among the three decapeptides I, II, III” value (rat, in vivo) is “most potent”.
